One test has as its system ubiquitinated proteins. Put plainly: Ubiquitin immunoblot of cell extracts. The format is cell-based. As to conditions: for accumulation of ubiquitinated proteins: Z138 cells; for ubiquitinated protein levels: CML cells. How it is done:
(§1) Total cell lysates were prepared by boiling and sonicating cell pellets in 1× Laemmli reducing sample buffer. To prepare detergent soluble and insoluble fractions, cells were lysed in cold isotonic lysis buffer [10 mM Tris-HCl (pH 7.5), 0.5% Triton X-100, 150 mM NaCl along with Mini-Complete and PhosSTOP] for 15 min on ice and centrifuged 10 min at 20,000 RCF. The clarified supernatant was used as the detergent soluble cell fraction. The residual pellet was washed and extracted in Laemmli reducing sample buffer and briefly sonicated to derive the detergent insoluble fraction. Equal volumes of cellular lysate or equal protein amounts were electrophoresed on SDS-PAGE gels and transferred to nitrocellulose membranes (Whatmann, Dassel, Germany). Proteins were detected by immunoblotting.
Whole cell lysates were prepared by boiling and sonicating the cell pellets in 1× Laemmli reducing sample buffer. To prepare detergent soluble and insoluble fractions, cells were lysed in cold isotonic lysis buffer [10 mM Tris-HCl (pH 7.5), 0.5% Triton X-100, 150 mM NaCl along with Mini-Complete and PhosSTOP] for 15 min on ice and centrifuged 10 minutes at 20,000 RCF. The clarified supernatant was used as a source of the detergent soluble cell fraction. The detergent insoluble fraction was extracted by the sonication of residual pellet in equal volumes of boiling 1× Laemmli reducing sample buffer. Equal volumes of cellular lysate or equal protein amounts were electrophoresed on SDS-PAGE gels.
On the technique in general: A western blot detects proteins with antibodies after separation by electrophoresis.

The test system of the next test is DUB activity. Description: Western / HA-UbVS labeling of DUB activity in intact cells. The format is cell-based. As to conditions: for DUBs labeling (HA-UbVS): Z138 treated cells, AG490 250 μM. The procedure:
To assay for changes in activity of cellular deubiquitinase enzymes, leukemic cells were lysed in DUB buffer (50 mM Tris pH 7.4, 5 mM MgCl2, 150 mM NaCl) for 10 min at 4° C. The lysates were centrifuged at 20,000 RCF for 10 min and the supernatant was used for DUB labeling. Equal amounts of lysate were incubated with 500 ng of HA-UbVs for 1 hr at room temperature, followed by boiling in reducing sample buffer and resolving by SDS-PAGE. HA immunoblotting was used to detect DUB labeling.
To assay for changes in activity of cellular deubiquitinase enzymes, Z138 and HEK293 cells were lysed in DUB buffer (50 mM Tris pH 7.4, 5 mM MgCl2, 150 mM NaCl) for 10 min at 4° C. The lysates were centrifuged at 20,000 RFC for 10 min and the supernatant was used for DUB labeling. Equal amounts of lysate were incubated with 500 ng of HA-UbVs for 1 hr at room temperature, followed by boiling in reducing sample buffer and resolving by SDS-PAGE. After protein transfer to nitrocellulose membranes, HA immunoblotting was used to detect DUB labeling.
(§2) Cancer Res, 2010. 70(22): p. […] Blood, 2011. 117(11): p. […] Biochem Pharmacol, 2011. 82(4): p. […] Blood, 2007. 109(8): p. 3470-8.

The subject of the next test is cellular DUB activity. Put plainly: DUB activity of lysates from treated cells (Ub-AMC, Ub chain disassembly). The test is classed as cell-based. As to conditions: Z138 cells, 5 μM WP1130 or 50 nM bortezomib, by 4 hours. How it is done: Cells were lysed in ice cold DUB buffer containing 50 mM Tris-HCl, pH 7.5, 0.5% NP-40, 5 mM MgCl2, 150 mM NaCl and 1 mM phenylmethylsulfonylfluoride. Briefly, 5 μg of clarified lysate from untreated or treated cells was incubated with 500 nM Ub-AMC in a 100 μL reaction volume at 37° C. and the release of AMC fluorescence was recorded at ex/em 380/480 using a spectrofluorometer. USP9x was immunoprecipitated from 500 μg of cell lysate and incubated in DUB buffer containing NEM, WP1130 or DMSO in a 100 μL reaction volume for 30 min. The reaction was initiated by the addition of 500 nM Ub-AMC and the release of AMC-fluorescence was recorded.
In vitro disassembly of purified polyubiquitin chains (K-48/K-63 linked) was performed as previously described. Five μg of lysate from untreated or WP1130 treated cells were prepared in DUB buffer and incubated with K48- or K-63 linked chains (1 μg) for 10 min at 37° C. The extent of chain disassembly was assessed by ubiquitin immunoblotting.
Inhibition of cellular deubiquitinases could lead to an increase in high molecular weight ubiquitinated proteins in the absence of proteasome inhibition. […] To directly assess the impact of WP1130 on DUB activity in treated cells, cell lysates from control and treated cells were incubated with ubiquitin-AMC and fluorescence generated as a consequence of substrate cleavage was measured as an indicator of DUB activity.
The effect of WP1130 treatment on in vitro deubiquitination/disassembly of purified K48-linked or K63-linked polyubiquitin chains was evaluated. Lysates from WP1130 treated (2 hr) or untreated cells were incubated with 1 μg of unanchored polyubiquitin chains for 5, 10 and 15 min at 37° C.

The next test relates to Bcr-Abl. Put plainly: Bcr-Abl immunoblot of cell fractions. As to conditions: CML cells; WP1130 5 μM, bortezomib 50 nM. The format is cell-based.
Another test concerns WDT2. Description: MTT cell growth and survival. The test is classed as cell-based. As to conditions: WDT2 cell line.
Description: as §2

In a further test the test system is K562. Put plainly: MTT cell growth and survival. The following applies: K562 cell line. The format is cell-based.
Description: as §2

A further test concerns Hsp70. Put plainly: Hsp70 immunoblot. The format is cell-based. As to conditions: CML cells.
The next test has as its system BV-173 and BV-173R. Put plainly: Anti-proliferative effects in CML lines. As to conditions: BV-173 (WT Bcr-Abl) and BV-173R (T315I).
The next test concerns pStat5. Description: Western blot of pStat5. The format is cell-based. The following applies: SET, HEL cell lines. The procedure: as §1, §2
The target in test [1] is ubiquitin iso-peptidase activity. As to conditions: read-out: IC50, ubiquitin iso-peptidase activity in cells; cited from earlier work.
The target of another test is T1, 20S human proteasome (Homo sapiens, UniProt P28074).
T1 construct: purchased BostonBiochem
Description: Proteasome activity assay on purified 20S proteasome. The following applies: 5 μM. The test is classed as biochemical. How it is done:
(§3) Fluorogenic substrate Suc-LLVY-AMC was used to assay for the chymotryptic-like activity of the 20S proteasome. To assay for in vivo proteasome inhibition cells were treated with WP1130 (5 μM) or MG132 (5 μM) for 2 hours and lysed in ice-cold lysis buffer (50 mM HEPES, pH 7.5, 5 mM EDTA, 150 mM NaCl, 1% Triton X-100). Lysates were clarified by centrifugation at 20,000 RCF for 10 min and equal amounts of protein from each sample were incubated at 37° C. with 100 μM fluorogenic substrate. To assay for direct inhibition of the 20S proteasome in vitro, purified 20S human proteasome (200 ng) was incubated with WP1130 (5 μM), MG132 (5 μM) or Lactacystin (5 μM) for 30 min at 37° C. before addition of the substrates. Fluorescence intensity was measured using a spectrophotometer at excitation 360 nm & emission 460 nm. Assays were performed in triplicate, and statistical significance was determined with a paired Student's t test.

The next test concerns the target T2, 20S proteasome (Homo sapiens, UniProt P28074).
T2 construct: endogenous in cells; host or cells: K562 and other CML lines, Z138
Put plainly: Proteasome activity assay in treated cells (Suc-LLVY-AMC). The test is classed as cell-based. As to conditions: 5 μM, 2 hr. How it is done:
as §3

Another test concerns Murine norovirus (MNV). Put plainly: Murine norovirus plaque assay. The test is classed as cell-based. The following applies: MNV-1 (MOI 5), RAW 264.7, 20 μM, 8 and 12 hours postinfection. The procedure:
Viral titers were determined by plaque assay.
Cells were treated with IFN-β as a positive anti-viral control.

A further test relates to USP9X. Put plainly: Western / HA-UbVS labeling of USP9X in intact cells or lysates. The format is cell-based. As to conditions: Z138 treated cells.
The next test has as its system tumor cell. Put plainly: Tumor cell proliferation. The test is classed as cell-based. The source says:
WP1051 and WP1052 represent two earlier chemical analogues of WP1130. […] This was unexpected as WP1051 and WP1052 are chemically identical but structurally distinct isomers. Since apoptosis/anti-proliferative properties of WP1130 are related to its ability to suppress cellular DUBs and induce accumulation of ubiquitinated proteins, WP1051 and 1052 were investigated whether they can affect protein ubiquitination and DUB activity.

Residues, ends and D or L forms follow the SMILES beside them. *: point of attachment. Cbz = O=C(OCc1ccccc1)*

These results are taken from patent US8809377B2, “Deubiquitinase inhibitors and methods for use of the same” (The Regents of the University of Michigan, priority 2010, dated 2014).

T2 sequence (P28074 60-263): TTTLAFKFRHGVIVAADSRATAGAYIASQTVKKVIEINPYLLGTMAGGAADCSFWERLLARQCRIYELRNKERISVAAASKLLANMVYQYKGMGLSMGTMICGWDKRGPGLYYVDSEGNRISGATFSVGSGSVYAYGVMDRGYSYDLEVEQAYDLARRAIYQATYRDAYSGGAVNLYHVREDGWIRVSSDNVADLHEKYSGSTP

As to `N#C/C(=C/c1ccc(O)c(O)c1)C(=O)NCc1ccccc1` [AG490, reference compound], the “accumulation of ubiquitinated proteins” value in the test on ubiquitinated proteins is “did not induce a change”. The “DUBs labeling (HA-UbVS)” value in the test with DUB activity is “no change”.
Turning to `CC(C)C[C@H](NC(=O)[C@H](Cc1ccccc1)NC(=O)c1cnccn1)B(O)O` [Bortezomib, reference compound], the ubiquitinated protein levels result in the test on ubiquitinated proteins is given as “elevated”. The “reduction of DUB activity (ubiquitin-AMC)” value in the test with cellular DUB activity is listed as “no change”. For the same molecule, in the test on Bcr-Abl, the “Bcr-Abl trafficking from detergent soluble to insoluble cell fraction” value is on record as “no effect”.
Consider `CCCC(NC(=O)/C(C#N)=C/c1cccc(Br)n1)c1ccc(OCOC)cc1` (stereo not shown) [Compound 6, (E)-3-(6-Bromopyridin-2-yl)-2-cyano-N-(1-(4-(methoxymethoxy)phenyl)butyl)acrylamide], for which the “MTT Activity relative to WP1130” value with WDT2 is recorded as “More sensitive”.
Still for that read-out and setting: in the case of `CCCC(NC(=O)/C(C#N)=C/c1cccc(Br)n1)c1ccc(O)cc1` (stereo not shown) [Compound 7, (E)-3-(6-Bromopyridin-2-yl)-2-cyano-N-(1-(4-hydroxyphenyl)butyl)acrylamide] it was “More sensitive”.
As for `CCC(NC(=O)/C(C#N)=C/c1cccc(Br)n1)c1ccc(OCCOC)cc1` (stereo not shown) [Compound 17, (E)-3-(6-Bromopyridin-2-yl)-2-cyano-N-(1-(4-(2-methoxyethoxy)phenyl)propyl)-acrylamide], the “MTT Activity relative to WP1130” value in the test with K562 is given as “Less sensitive”.
`C=CCNC1=C2C[C@@H](C)C[C@H](OC)[C@H](O)[C@@H](C)/C=C(\C)[C@H](OC(N)=O)[C@@H](OC)/C=C\C=C(/C)C(=O)NC(=CC1=O)C2=O` [Compound 17-AAG, 17-Allylamino-17-demethoxygeldanamycin, reference compound]: the ubiquitinated protein levels result in the test with ubiquitinated proteins is given as “no effect”. Moreover, the Hsp70 protein levels entry in the test with Hsp70 is on record as “induction of Hsp70”. For the same molecule, the anti-proliferative effects entry in the test with BV-173 and BV-173R is listed as “anti-proliferative effects”.
For the molecule `CCC[C@H](NC(=O)C(C#N)C(SCC(O)CO)c1cccc(Br)n1)c1ccccc1` (stereo partly drawn) [Compound 20, 3-(6-Bromopyridin-2-yl)-2-cyano-3-((2,3-dihydroxypropyl)thio)-N—((S)-1-phenylbutyl)propanamide], the “Western Targets: pStat5” value in the test on pStat5 is reported as “pStat5: down-regulated; DUB”. For the same molecule, the “MTT Activity relative to WP1130” value with K562 is given as “More sensitive”. The “Western Targets: DUB activity” value in the test on DUB activity (SET, HEL cell lines) was “no effect”.
Usually IC50 stands for the midpoint of a concentration-inhibition curve. For the molecule `CCCCC[C@H](O)C/C=C1/C(=O)C=C[C@@H]1C/C=C\CCCC(=O)O` [D12-prostaglandin J2], the 50% inhibitory concentration (IC50) in test [1] was roughly 30 µM.
With `CC(C)C[C@@H](C=O)NC(=O)[C@H](CC(C)C)NC(=O)[C@H](CC(C)C)NC(=O)OCc1ccccc1` [MG-132, reference compound] (Cbz-Leu-Leu-Leu-aldehyde), the “purified 20S proteasome activity (in vitro)” value on 20S human proteasome is listed as “substantially inhibited”. Further, on 20S proteasome, the “20S proteasome chymotryptic-like activity in intact cells (in vivo)” value was “substantially inhibited”.
For the molecule `C[C@H](NC(=O)/C(C#N)=C/c1ccc([N+](=O)[O-])c(O)c1)c1ccccc1` [WP1051], the “accumulation of ubiquitinated proteins” value with ubiquitinated proteins is given as “induce accumulation of ubiquitinated proteins in a dose-dependent fashion”. Further, in the test with Murine norovirus (MNV), the “viral titers by plaque assay” value is recorded as “reduced viral titers”. Moreover, the “HA-UbVS labeling of USP9x” value in the test with USP9X is on record as “could suppress the activity”. Besides, in the test on tumor cell, the “suppression of tumor cell proliferation” value is on record as “effective in suppressing tumor cell proliferation”.
On to `C[C@H](NC(=O)/C(C#N)=C/c1ccc(O)c([N+](=O)[O-])c1)c1ccccc1` [WP1052], for which, in the test on ubiquitinated proteins, the “accumulation of ubiquitinated proteins” value is “failed to show any affect”. For the same molecule, the “viral titers by plaque assay” value with Murine norovirus (MNV) is “not”. Besides, in the test with DUB activity, the “DUBs labeling (HA-UbVS)” value is recorded as “no DUB inhibition”. The “suppression of tumor cell proliferation” value with tumor cell is given as “failed to show any anti-tumor properties”.
On to `COc1cc(/C=C/C(=O)CC(=O)/C=C/c2ccc(O)c(OC)c2)ccc1O` [curcumin], for which the concentration for half-maximal inhibition (IC50) in [1] was 80 to 100 µM.
For `O=C(C=Cc1ccccc1)C=Cc1ccccc1` [dibenzylideneacetone], the IC50 in test [1] is 20 to 40 µM.
Take `C=C1C(=O)C2=CC1CCC(=O)C1(C)CCC(OC(C)=O)C(C)(C)C1CC2O` (stereo not shown) [shikoccin]: the IC50 in test [1] was roughly 15 µM.
